Common to all, as to format: cell-based
For experiment [1], the system named is TCF-dependent transcription. The experiment in a line: TCF-dependent transcription, TOPFLASH luciferase assay in P19CL6 cells. The note with it: DMSO treatment for 4 days. How it is done: Cells were seeded and cultured as above and transfected 1 day after plating, using in serum-free αMEM for 6 hr. Transfections contained 0.5 μg TOPFLASH or 0.1 μg pRL-CMV as the co-transfected control. Medium containing 10% FBS with or without DMSO changed 6 and 48 hr after transfection. Cells were lysed 4 days after DMSO treatment and luciferase assayed using the Dual-Luciferase system (Promega). Firefly luciferase activity, indicating TCF-dependent transcription, was normalized to the Renilla luciferase activity of each extract. TOPFLASH activity induced by Wnt3A CM versus control CM was measured after 18 hr. Activity of the GSK-3βA9 expression vector was corroborated by transient transfection in 293T cells: cells were passaged at a 1:2.5 dilution into 24-well dishes, and TOPFLASH, pRL-CMV, and PGK-Wnt3A were co-transfected by calcium-phosphate precipitation along with pcDNA3-GSK-3βA9-HA versus the empty vector control (Jordan et al., 1996). Twenty-four hrs after transfection, the medium was changed to Dulbecco's modified Eagle's medium (DMEM) supplemented with 0.2% BSA. Forty-eight hrs after transfection, cells were lysed and luciferase activities were assayed.

The next experiment relates to β-catenin. In words: β-catenin and phospho-β-catenin Western blot / immunostaining in differentiating cells. On the procedure:
(§1) Cells were seeded on glass cover slips and cultured with or without DMSO for 3 days. Cells were fixed with 4% paraformaldehyde and penneablized with 0.2% Triton X-100 for 5 min. To detect phosphorylated β-catenin, cells were incubated overnight with rabbit antibody to phoshpo-β-catenin (Ser33/Ser37/Thr4l; Cell Signaling) in Tris-buffered saline, 3% bovine serum albumin, then for 1 hr with goat antibody to rabbit IgG conjugated with Alexa Fluor 488 (Molecular Probes). Immunostaining for sarcomeric myosin heavy chains (MHC) was performed using fluorescein isothiocyanate-conjugated MF20 antibody (Oh et al., 2001). Nuclei were counterstained with DAPI.
Cells were seeded on 6-well dishes (1.67×10^6 cells/well) and cultivated with or without 1% DMSO and 500 ng/ml Fx/FC chimeric protein. After 3 days, cells were harvested in phosphate-buffered saline in 4 C, centrifuged, and resuspended in 20 mM Tris-HCl, pH 7.5, 25 mM sodium fluoride, 1 mM EDTA, containing a protease inhibitor cocktail (Roche Molecular Biochemicals). Cells were incubated on ice for 20 min, followed by 30 strokes in a Dounce homogenizer, and centrifuged at 100,000×g for 30 min. The supernatant was collected as the soluble, cytoplasmic fraction and electrophoresised in 10% SDS-polyacrylamide gels. […]
(A western blot detects proteins with antibodies after separation by electrophoresis.)

Experiment [2] deals with P19CL6 cells. The experiment in a line: Cardiac-specific gene expression by QRT-PCR in differentiating P19CL6 cells. The arrangement: expression of Nkx2.5, GATA4, Tbx5, BMP2, BMP4: dose or concentration left out as unconfirmed. How it is done: (§2) Cells were grown on 10 cm dishes in α-minimal MEM; Invitrogen) supplemented with 10% fetal bovine serum (FBS) (Hyclone), streptomycin. To induce differentiation, cells were seeded at a 1:40 dilution with α-MEM, DMSO. For each experiment, cardiomyocyte differentiation was apparent in the control spontaneous beating, starting day 9 to 10. To obtain stable transformants incorporating GSK-vector control, cells were transfected using Lipofectamine2000 (Invitrogen) and medium containing 500 μg/ml Geniticin (Invitrogen). After 10-14 day, 60 colonies were picked and screened by RT-PCR. To detect exogenous GSK-3β selectively, the 5′ primer corresponded to the N terminus and the 3′ primer to the H. influenza hemagglutinin epitope tag.
RNA was isolated using TRIzol (Invitrogen). RNA (0.1 μg) was subjected to quantitative RT-PCR using the TaqMan One-step RT-PCR Master Mix Biosystems); the RT and PCR were run sequentially using a 7700 Sequence Detector (Applied Biosystems). Copy number for each transcript was expressed relative to that of glyceraldehyde-3-phosphate dehydrogenase (GAPDH), used as a constitutive control. RT-PCR for FGF8 and β-actin was done as described by Lee et al., 2000).

Experiment [3] deals with P19CL6 cells. The experiment in a line: Spontaneous beating of differentiating cells. On the procedure:
as §2

Experiment [4] concerns P19CL6 cells. The experiment in a line: Sarcomeric MHC immunostaining (MF20-positive cells). The arrangement: dose or concentration left out as unconfirmed. To be noted: LiCl, day 12. On the procedure:
as §1

With `C[S+](C)[O-]` [DMSO], the “increase in luciferase activity (TCF-dependent transcriptional activity)” value in experiment [1] came out at 9 fold. Also, the “phosphorylated β-catenin” value in the experiment with β-catenin (DMSO treatment for 3 days, immunoblotting and immunocytochemistry) is reported as “decreased”. Moreover, the “soluble (cytosolic) β-catenin level” value in the experiment on β-catenin (DMSO, day 3, Western blot) is “accumulation of soluble β-catenin”. In the experiment with P19CL6 cells [2] (1% DMSO treatment, QRT-PCR), the “time to expression of Nkx2.5, GATA4, MEF2C, and Tbx5 as early stage markers” value was 3 to 8 days. In addition, the “Wnt3A and Wnt8A induced as early as” value in the experiment with P19CL6 cells [2] (after DMSO treatment, expression greatest on day 3) is reported as 2 days. The compound further returned a spontaneous beating visible in the experiment on P19CL6 cells [3] (1% DMSO treatment) of 9 to 10 days.
For `[Cl-].[Li+]` [LiCl], in the experiment on P19CL6 cells [2] (d 5, QRT-PCR), the “expression of Nkx2.5, GATA4, Tbx5, BMP2, BMP4” value was “significantly increased”. In the experiment on P19CL6 cells [2] (in the absence of DMSO), the “effect on each of the early cardiac markers and on sarcomeric MHC” value is “inductive effect”. Also, the MF20-positive cells result in the experiment on P19CL6 cells [4] is reported as “significantly increased”. Besides, the spontaneous beating result with P19CL6 cells [3] (treated alone, without DMSO) was “did not show spontaneous beating”.

These data come from US20050043260A1, “Wnt as a factor for cardiac myogenesis” (BAYLOR COLLEGE OF MEDICINE, priority 2003, published 2005).
